Results from patent US11981641B1, “4,5-bis(4-bromophenyl)-1-hexyl-2-(3,4-dimethoxyphenyl)-1H-imidazole as an antimicrobial compound” (KING FAISAL UNIVERSITY, priority 2023, dated 2024).

Legend:
Format in all cases: cell-based
Conditions in all cases: after 10, 20, 40 and 60 minutes at all dilutions 1:100, 1:200, 1:400, 1:800
Escherichia coli = assay: antimicrobial screening by agar dilution, E. coli
Procedure: (§1) The antimicrobial properties of the 4,5-bis(4-bromophenyl)-1-hexyl-2-(3,4-dimethoxyphenyl)-1H-imidazole was studied by the method of agar dilution. Test solutions of each compound was prepared in concentration of 1% using dimethylformamide as a solvent then they were diluted in physiological solution to obtain the final experimental dilutions 1: 100, 1:200, 1:400, 1:800. The effect of these substances were compared with furacillin in a controlled study. The testing microbes used were gram positive bacteria Staphylococcus aureus, gram negative bacteria Pseudomonas aeruginosa and Escherichia coli and Candida albicans fungi were taken. The experiments used for this survey were meat-pentonlu agar (EPA) for cultivation of bacteria and Saburo environment for fungi. Each experiment used 1 ml of test solution on each plate 500 min. Add 2 drops of emulsified with microbes feel. All experimental samples were taken from the agar after 10, 20, 40, 60 minutes in the environment on the basis of Patrk planted. Bacteria were cultivated at a temperature of 37° C. for 1 day and the mushroom was kept in a thermostat for […] at a temperature of 28° C. Then results were checked.

Staphylococcus aureus = assay: antimicrobial screening by agar dilution, St. aureus
Procedure: as §1

Candida albicans = assay: antimicrobial screening by agar dilution, Candida albicans
Procedure: as §1

Pseudomonas aeruginosa = assay: antimicrobial screening by agar dilution, Ps. aeruginosa
Procedure: as §1

Measured: inhibition activity

CCCCCCn1c(-c2ccc(OC)c(OC)c2)nc(-c2ccc(Br)cc2)c1-c1ccc(Br)cc1 [4,5-bis(4-bromophenyl)-1-hexyl-2-(3,4-dimethoxyphenyl)-1H-imidazole]
highest inhibition activity: all assays above
